Test results published in publication PMC6068344, “CPP‐E1A fusion peptides inhibit CtBP‐mediated transcriptional repression” (Molecular Oncology, 2018).
No end group written: not given here.

Assays:
6xHis‐CtBP1 = 6xHis‐CtBP1 (UniProt Q13363); assay: AlphaScreen; conditions: competition against the CtBP1-E1A interaction, peptide at 250 µM (highest concentration), IC50 printed as 'Not determined', read off a plot
H1299 cells [1] = assay: Subcellular fractionation and anti-FLAG western blot of the nuclear fraction; format: in vitro ADME, human; conditions: 1-h treatment, anti-FLAG, two biological replicates
Description: For cellular fractionation, H1299 cells were treated with 42 μg·mL^−1 digitonin in NEH lysis buffer (20 mM HEPES [pH 7.4], 150 mM NaCl, 0.2 mM EDTA, 2 mM DTT, and 2 mM MgCl2) plus a protease inhibitor cocktail (Roche) for 10 min at 4 °C. The H1299 cell lysate was centrifugated at 15 000 g in a Beckman Coulter Microfuge 22R (Beckman Coulter, Brea, CA, USA) for 10 min at 4 °C to remove the cytosolic fraction. The remaining pellet was washed twice with chilled PBS before the addition of the nuclear lysis buffer (40 mM Tris/HCl [pH 7.4], 100 mM NaCl, 10% glycerol, 2 mM β‐ME, and 0.5% Triton X‐100) plus the protease inhibitor cocktail. The nuclear fraction was incubated at 4 °C for 1 h before the final centrifugation at 15 000 g for 20 min. The soluble nuclear fraction was then used for a western blot analysis to monitor peptide levels within the nuclear fraction using a FLAG antibody (LT0420; LifeTein LLC, Somerset, NJ, USA). The western blot was also probed with primary antibodies against α‐tubulin (sc‐8035; SantaCruz Biotechnology, Dallas, TX, USA) and HDAC1 (ab‐68436; Abcam, Cambridge, MA, USA) as cytoplasmic and nuclear controls, respectively, to confirm subcellular fractionation.

H1299 cells [2] = assay: Peptide internalization by anti-FLAG immunofluorescence in H1299 cells; format: in vitro ADME, human; conditions: 20 μM peptide, 30 min, DAPI
Description: (§1) H1299 or A375 cells were allowed to adhere to a cover slip overnight in DMEM complete media and grown until they reached approximately 75% confluency on the cover slip surface. After a 30 min treatment with 20 μM peptides, TAT (used as a negative control), TAT‐E1A‐WT, and Pep1‐E1A‐WT, cells were fixed for 10 min using 100% methanol, and permeabilized for 1 min in 100% acetone. Each sample was stained with an anti‐FLAG antibody and detected using an Alexa Fluor 555 anti‐mouse IgG (4409S; Cell Signaling Technology, Danvers, MA, USA). DAPI staining was used to visualize the nucleus.

[3] = biological target: T1, 6xHis-CtBP1 and GST-E1A (CtBP1-E1A interaction) (Homo sapiens, UniProt Q13363); assay: AlphaScreen assay of the CtBP1-E1A interaction; format: binding; conditions: AlphaScreen competition with GST-E1A; 125 nM 6xHis-CtBP1, 125 nM GST-E1A; peptide 2 μM to 200 μM; three experiments in triplicate; GraphPad Prism; read-out: IC50 (μM), disruption of the CtBP1-E1A interaction
T1 construct: 6xHis; made in house
Description: The AlphaScreen assay was carried out using 6xHis‐CtBP1 and GST‐E1A proteins following the manufacturer's protocol (PerkinElmer, Waltham, MA, USA) unless otherwise specified. GST‐E1A and 6xHis‐CtBP were purified as previously described (Blevins et al., 2015). To confirm inhibition by CPP‐E1A peptides, each peptide was added at varying concentrations (2 μM to 200 μM) to compete with GST‐E1A in the AlphaScreen assay containing 125 nM 6xHis‐CtBP1 and 125 nM GST‐E1A. The IC50 value of each peptide was calculated using the GRAPHPAD PRISM software (GraphPad Software, San Diego, CA, USA).

A375 cells = assay: Peptide internalization by anti-FLAG immunofluorescence in A375 cells; format: in vitro ADME, human; conditions: for Entry into A375 cells: anti-FLAG immunofluorescence as in Figure 2 (20 μM, 30 min)
Description: as §1

[4] = Peptide stability in H1299 cells (western blot, fluorescence microscopy); format: in vitro ADME, human; conditions: 10 μM, 45 min, 2 h, 4 h, 8 h, western blot and FITC fluorescence microscopy
CtBP1 = conditions: ref Zhang et al., 2002; read-out: K d, binding to CtBP1; cited from earlier work
Source text: This idea is strengthened by several studies that have found a correlation between CtBP1/2 overexpression and cancer progression in multiple tumor types, including blood (Senyuk et al., 2002), skin (Deng et al., 2013), breast (Birts et al., 2010; Deng et al., 2012; Di et al., 2013), prostate (Moiola et al., 2014; Wang et al., 2012), ovarian (May et al., 2013; Zhang e ...

Row | Molecule | Peptide in the nuclear fraction (western blot) (H1299 cells [1]) | Localization to the nucleus by immunofluorescence (H1299 cells [2]) | IC50 [3] | Entry into A375 cells (A375 cells) | other results
1 | TAT‐E1A‐WT L27E; S28L | – | – | – | – | response (6xHis‐CtBP1; parent: est. 3): 80 % Bound
2 | Pep1‐E1A‐WT L35E; S36L | – | – | – | – | response (6xHis‐CtBP1; parent: est. 5): 58 % Bound
3 | GSHMGRKKRRQRRRPPQLEEPGQPLDLSCKRPRDYKDDDDK [TAT-E1A-WT] | found in the nuclear fraction | much lower amount in the nucleus | 5.6 ± 1.4 µM | can enter the A375 cells | –
4 | GSHMKETWWETWWTEWSQPKKKRKVLEEPGQPLDLSCKRPRDYKDDDDK [Pep1-E1A-WT] | found in the nuclear fraction | significant amount of localization to the nucleus | 7.1 ± 1.2 µM | can enter the A375 cells | Nuclear localization pattern in A375 cells (A375 cells; anti-FLAG immunofluorescence as in Figure 2): more predominant nuclear localization pattern; Peptide half-life / stability in vitro [4]: short half‐life
5 | NC(=O)C1=CN([C@@H]2O[C@H](COP(=O)(O)OP(=O)(O)OC[C@H]3O[C@@H](n4cnc5c(N)ncnc54)[C@H](O)[C@@H]3O)[C@@H](O)[C@H]2O)C=CC1 [NADH, nicotinamide adenine dinucleotide] | – | – | – | – | Kd (CtBP1): 0.1 µM
